According to paper PMC3366674, “Epigenetic Tailoring for the Production of Anti-Infective Cytosporones from the Marine Fungus Leucostoma persoonii” (Marine Drugs, 2012):
Converted amounts (≈) assume the structure as drawn. Where two headings read alike, the source gives them in different places.

Columns and labels:
[1] = system: methicillin-resistant Staphylococcus aureus (MRSA) USA100; assay: Minimum bactericidal concentration (MBC) counts on MIC cultures; type: cell-based; details: for fold reduction in bacterial viability at MIC: MRSA USA100, at MIC; for MBC: Staphylococcus aureus, MRSA USA100, read-out: MRSA MBC90
Description: (§1) The strain of MRSA used in our bioassays is a hospital-associated clone from the CDC USA 100 lineage. […] It is thus deemed an extensively drug resistant strain, and something of a worst-case scenario MRSA isolate.
(§2) The minimum inhibitory concentration (MIC) of the pure compounds was determined as follows. Broth cultures were prepared for S. aureus strains as described above. These were diluted 1:1000 in fresh Trypticase Soy Broth (TSB) and 200 µL was applied to the wells of a sterile 96-well plate. Compounds (in DMSO) were added to wells at concentrations ranging from 1, 10, 25, 50 to 100 µg/mL in a volume no greater than 5 µL. Concentrations were adjusted to lower levels if applicable. Samples were mixed by pipetting and the plates were incubated at 37 °C overnight. MICs were determined by visual inspection for the minimum concentration of compound producing no bacterial growth, as determined by a lack of turbidity. Assays were repeated three times in order to verify the MIC determinations. […] Minimum bactericidal concentration (MBC) counts were performed on the MIC cultures by removing the growth media from each well the following morning, serially diluting, and plating onto Trypticase Soy Agar (TSA). These were incubated overnight at 37 °C and the bacterial loads of each well were determined by enumeration. Percentage killing was determined by the comparison of drug-containing wells to control wells where no compound was added.

Plasmodium falciparum = assay: Malaria assay (luciferase-reporter Plasmodium falciparum); type: cell-based; details: for activity toward Plasmodium falciparum: levels tested up to 10 µg/mL
Description: Mangrove endophytes isolated as described above were subject to small-scale cultivation on Sabouraud dextrose agar (SDA), freeze dried, then extracted with methanol. Extracts at a concentration of 30 mg/mL were screened in a luciferase-reporter Plasmodium falciparum assay.
Malaria screening was done as previously reported.

A549 cells = assay: A549 cytotoxicity assay (CellTiter 96 Aqueous One); type: cell-based, human; details: 72 h incubation
Description: Cell line A549 (adenocarcinomic human alveolar epithelial cells) was cultured in F-12K Nutrient Mixture (Kaighn’s Modification) media containing L-glutamine, supplemented with 10% fetal bovine serum and 1% penicillin-streptomycin. For the assay, the A549 cells were diluted to 1.33 × 10^5 cells/mL in DMEM F12 media with L-glutamine, without HEPES or phenol red, and supplemented with 2% fetal bovine serum and 1% penicillin-streptomycin. The A549 cells were dispensed into 96 well plates at a volume of 90 µL/well giving a final concentration of 12,000 cells per well. Plates were incubated for 24 h at 37 °C and 5% CO2. After 24 h, 10 µL of the test compounds at concentrations of 0.4, 1.2, 3.7, 11, 33.3 and 100 µg/mL were added to the 96 well plates containing A549 cells followed by 72 h of incubation at 37 °C and 5% CO2. A Beckman-Coulter Biomek NX 3000 was used to dispense cells and dispense test compounds to the 96 well plates. Positive (bronopol) and negative (blank DMSO) controls were included on each assay plate. After the incubation period, cell proliferation was assessed using Promega’s CellTiter 96 Aqueous One Solution Cell Proliferation Assay reagent. Into each well 20 µL of reagent was added followed by incubation for 3 h at 37 °C and 5% CO2. A Biotek plate reader was used to read absorbance at 490 nm and IC50 values were determined for each test compound.

[2] = system: methicillin-resistant Staphylococcus aureus (MRSA) USA100; assay: Microtiter MIC determination against MRSA USA100; type: cell-based; details: for MIC: Staphylococcus aureus; for activity against MRSA: pure compound
Description: as §1, §2

MRSA biofilm = assay: Minimum biofilm eradication count (MBEC) biofilm assay; type: cell-based, Staphylococcus aureus; details: MRSA USA100 biofilm; for MRSA MBEC90: 24 h exposure
Description: as §1
We performed minimum biofilm eradication count (MBEC) assays on cytosporones to assess their activity towards this form of bacterial growth. These were performed by generating S. aureus biofilms in a 96-well microtitre plate, as previously described. Once established, biofilm cultures were exposed to fresh growth media containing a range of concentrations of 15, 20, 25 and 50 µg/mL of the cytosporones. Control analyses were performed in parallel containing no compound. Cultures were incubated, covered, for 24 h at 37 °C without shaking. After this time the culture media was aseptically aspirated, and the wells rinsed twice with PBS to remove non-adherent cells. Fresh PBS (100 µL) was then added to the wells, and mixed by vigorous pipetting, to dislodge the biofilm matrix from the surface of the wells. These samples were serially diluted, plated on TSA, with cells enumerated after overnight incubation at 37 °C. Each of the above analyses was performed with 3 biological replicates, each of which also had 3 technical replicates. By comparing CFU/mL against control, no-exposed cultures, we were able to obtain a quantitative assessment of the impact of cytosporones on S. aureus biofilms.

[3] = system: methicillin-sensitive S. aureus (MSSA); assay: Microtiter MIC determination against MSSA; type: cell-based; details: Staphylococcus aureus, methicillin-sensitive S. aureus strains
Description: as §2

[4] = MRSA USA100, overnight 37 °C, visual turbidity, read-out: MRSA MIC

| Structure (SMILES) | fold reduction in bacterial viability at MIC [1] | bacterial killing at twice the MIC ([1]; MRSA USA100, at twice the MIC) | MBC [1] | activity toward Plasmodium falciparum (Plasmodium falciparum) | IC50 (A549 cells; Homo sapiens) | IC90 (A549 cells; Homo sapiens, A549, 72 h) | MIC [2, 4] | MRSA MBEC90 (MRSA biofilm) | fold reduction in biofilm (MBEC assay) at MIC (MRSA biofilm) | fold reduction in biofilm formation at twice the MIC (MRSA biofilm; at twice the MIC) | activity against MRSA [2] | IC90 (Plasmodium falciparum; Plasmodium falciparum, read-out: IC90 toward Plasmodium falciparum) | IC90 (A549 cells; listed as Cytosporone E (3)) | MIC [3] | MIC ([2]; read-out: MIC of positive control) |
| --- | --- | --- | --- | --- | --- | --- | --- | --- | --- | --- | --- | --- | --- | --- | --- |
| CCCCCCCC(=O)c1c(O)cc(O)cc1CC(=O)OCC [Cytosporone B, cytosporone B] | 4.2 fold | complete killing of the bacteria | 93 µM (≈ 30 µg/mL) | inactive | 170 µM | 190 µM | 78 µM | 110 µM | 2 fold | 168 fold | – | – | – | – | – |
| CCCCCCCC1OC(=O)Cc2cc(O)cc(O)c21 (stereo not shown) [Cytosporone C, cytosporone C] | – | – | – | inactive | 690 µM | 840 µM | > 358 µM | – | – | – | inactive | – | – | – | – |
| CCCCCCCC1OC(=O)c2cc(O)c(O)c(O)c21 (stereo not shown) [Cytosporone E, cytosporone E] | > 5000 fold | – | 45 µM (≈ 12.6 µg/mL) | – | 280 µM | 437 µM | 72 µM | 39 µM | 183 fold | – | – | 13 µM | 440 µM | 72 µM (≈ 20.2 µg/mL) | – |
| CCCCCCCC(=O)c1c(O)cc(O)cc1CC(=O)OCC(O)CO (stereo not shown) [Cytosporone R, cytosporone R] | – | – | – | – | – | – | 503 µM | – | – | – | inactive | – | – | – | – |
| CN[C@H](CC(C)C)C(=O)N[C@H]1C(=O)N[C@@H](CC(N)=O)C(=O)N[C@H]2C(=O)N[C@H]3C(=O)N[C@H](C(=O)N[C@H](C(=O)O)c4cc(O)cc(O)c4-c4cc3ccc4O)[C@H](O)c3ccc(c(Cl)c3)Oc3cc2cc(c3O[C@@H]2O[C@H](CO)[C@@H](O)[C@H](O)[C@H]2O[C@H]2C[C@](C)(N)[C@H](O)[C@H](C)O2)Oc2ccc(cc2Cl)[C@H]1O [vancomycin, reference compound] | – | – | – | – | – | – | – | – | – | – | – | – | – | – | 1 µg/mL |
